We go through 91 molecules from a melting point compilation (Tetko et al.; mined from patent text by program, amines drawn as free bases though some values may be those of a salt).

As a reminder, the melting point is the temperature of the solid-liquid transition.

With `O=C(Nc1ccc([N+](=O)[O-])cc1)N[C@H]1C[C@H](C(=O)O)Nc2cc(Cl)cc(Cl)c21` (relative stereo), the melting point is 185 to 186 °C.
For `COc1ccc2[nH]c(-c3ccc(OC)c4nc(C(F)(F)F)ccc34)nc2c1`, the melting point lay within 131 to 133 °C.
The result for `Cc1c(N)c(C)c(C(C)C)c2c1CC(C)(CI)O2` (stereo unspecified) reads 84 to 86 °C; that for `CN(C)C(=O)n1ccc(-c2ccc(Oc3ccc(F)cc3)cc2)n1`, 59 to 63 °C; that for `COC(=O)C(C)c1ccc(OCCNC(=O)C2Cc3ccccc3N2S(=O)(=O)c2ccc(-c3cccc(C(F)(F)F)c3)cc2)cc1` (stereo unspecified), 71 to 74 °C.
In turn, `O=c1[nH]c2ccc(F)cc2c2cc(CO)nn12` came in with a melting point of 295 to 297 °C.
In turn, `CC(=O)N1CCCc2c1n(-c1ccccc1)c1c(c2=O)CCc2ccccc2-1` yielded a melting point of 178 to 182 °C.
The result for `O=C(c1ccc(Cl)cc1)N1CCc2nnc(Cl)cc2C1` reads 170 to 172 °C; that for `Cc1ccc(N=C2SCS2)cc1`, 54.5 to 55 °C; that for `CC(C)CS(=O)(=O)N1C[C@@H](C)C[C@H](Nc2ncccc2-c2cnc3[nH]ccc3n2)C1`, 215 to 218 °C.
The result for `CCNc1ccc(Cl)cc1C(=O)c1ccccc1` reads 57 to 58 °C; that for `CNC(=O)C(=O)CCCCCCc1cnc(-c2ccc(Br)cc2)o1`, 90 to 92 °C.
The result for `O=S1(=O)C[C@H](O)[C@H](O)CS1` reads 131 to 132 °C.
In turn, `CCOP(=O)(OCC)C1CCNc2ccc(C(F)(F)F)cc21` (stereo unspecified) returned a melting point of 94 °C.
Take `O=C(NCc1ccc(Cl)cc1)c1cc2c(O)c(C(=O)NCc3ccc(Cl)cc3)cnc2o1`: the melting point was in the range of 230 to 245 °C.
The result for `Cc1ccc(-c2nc(Cc3cc4cc(CO)ccc4o3)c(C)o2)cc1` reads 156 to 160 °C; that for `O=C(CCCc1ccc(-c2ccc(Cl)cc2)cc1)c1ccc(CN2CCCC2)cc1`, 114 to 115 °C.
The molecule `COC(=O)C#CC(=O)c1cccc(Cl)c1` displayed a melting point of 73 to 75 °C.
The result for `CCOc1ccc(Cc2cn(C3OC(COC(C)=O)C(OC(C)=O)C(OC(C)=O)C3OC(C)=O)c3cccc(Cl)c23)cc1` (stereo unspecified) reads 166 to 169 °C; that for `CCCCCCCCCCSc1ccc(C(=O)O)cc1`, 108 to 109 °C; that for `COC(=O)C(N)C(C)(C)SSc1ccccc1C(=O)Nc1ccc(S(N)(=O)=O)cc1` (stereo unspecified), 140 to 142 °C.
The result for `CCCCCCCCCCCCCCN(O)C(=O)N(C)C` reads 64 to 66 °C.
`Cc1nc2c(O)cccn2c(=O)c1Cc1ccccc1` displayed a melting point of 124 to 125 °C.
The result for `COCCc1nc2c(N)nc3ccccc3c2n1CCCCCC(=O)N1CCOCC1` reads 131 to 132 °C; that for `CC(C)[C@H]1CC[C@H](C(=O)N[C@H](Cc2ccc(OCCN(C)c3ccccn3)cc2)C(=O)O)CC1`, 154 to 155 °C.
`COc1cccc2c(=O)n3c(C)c(Br)sc3nc12` had a melting point of 198 to 199 °C.
For the molecule `O=C1NCCNCCNCCNC(=O)c2cccc1n2`, the melting point is 224 to 227 °C.
The result for `c1c2c(nc3c1CCCCC3)CCCCC2` reads 179 °C.
With `OCCc1cccc2c(-c3ccccc3)c(Br)oc12`, the melting point was in the range of 108 to 112 °C.
As to `C=CCNC(=O)C=c1sc2n(c1=O)Cc1ccccc1N=2`, the melting point fell in the range of 275 to 276 °C.
Turning to `CCOC(=O)c1cn(C)c2ccc(C(=O)c3c(C)cc4ccccn34)cc2c1=O`, the melting point came to 232 °C.
The result for `CN1C(=O)CC[C@]2(C)c3ccc(-c4cc(Cl)cc(Cl)c4)cc3CC[C@@H]12` reads 172 °C.
The result for `OC(c1ccccn1)c1cc(F)ccc1F` (stereo unspecified) reads 65 to 66 °C.
The result for `NCCNC(=O)Nc1ccc2[nH]ccc2c1` reads 156 to 158 °C.
`O=C1C2=C(Nc3ccccc3C2)c2ccccc21` displayed a melting point of more than 300 °C.
The result for `CCCOc1ccc([N+](=O)[O-])cc1C=O` reads 51 to 52 °C; that for `CC1(C)OCC(C(N)=O)CO1`, 132 to 134 °C; that for `Cc1ccc(S(=O)(=O)c2c(N3CCN(C(=O)c4cccs4)CC3)c3ccccc3n(C)c2=O)cc1`, 213 °C.
Regarding `COC=C(C(=O)OC)n1ccc2ccc(-c3nccc(-c4ccccc4)n3)cc21`, the melting point is 85 °C.
With `Cc1cc(Nc2ccnc(Nc3ccc(S(=O)(=O)N(C)C4CCN(Cc5cccn5C)CC4)cc3)n2)ccc1F`, the melting point was in the range of 159 to 160 °C.
In the case of `NC1CC(O)c2ccccc21` (stereo unspecified), the melting point lay within 108 to 110 °C.
As to `N#CC1=Cc2ccccc2C(N2CCN(N=Cc3ccccn3)CC2)c2ccccc21` (stereo unspecified), the melting point is 182 to 184 °C.
With `CCOC1C=CC(Cl)=CC1(C)S(N)(=O)=O` (stereo unspecified), the melting point fell in the range of 153 to 155 °C.
`CCCNc1nc(C#N)c(C#N)nc1CC(C)C` showed a melting point of 107 to 110 °C.
The result for `O=C(O)c1cc2c(Cl)cccc2s1` reads 227 to 231 °C; that for `C=C1C(O)C(CO)OC1n1cc(I)c(N)nc1=O` (stereo unspecified), 159 to 161 °C.
The result for `COC(=O)C=C1C(=O)N(C)C(=O)N1C` reads 49.5 °C.
The result for `CC1CC(=O)Nc2ncc3c(c21)CCCN3` (stereo unspecified) reads 309 to 311 °C; that for `O=C(c1c[nH]c(=O)[nH]1)c1cccs1`, 339 to 342 °C; that for `NC(=O)N(O)CCNC(=O)c1cccc(OCc2ccccc2)c1`, 183 to 185 °C.
`CN(C)C1(c2ccccc2)CCC2(OCCc3c2[nH]c2ccccc32)C(Sc2ccccc2)C1` (stereo unspecified): the melting point fell in the range of 228 to 233 °C.
The result for `CC(C)c1cc(C(C)C)c(C(F)C(=O)c2ccc(C(C)C)c(OS(N)(=O)=O)c2C(C)C)c(C(C)C)c1` (stereo unspecified) reads 130 to 132 °C; that for `Cn1ccnc1NC(=S)Nc1ccccc1`, 170 to 172 °C.
The result for `CNC1=NS(=O)N=C1NCCS` (stereo unspecified) reads 191 to 193 °C; that for `CN1CCC2(CC1)CN(c1ccccc1[N+](=O)[O-])c1cc(Cl)ccc12`, 130 to 131 °C.
The result for `O=C(c1ccc(Cl)cc1)c1c(CN2CCN(c3ccccc3)CC2)csc1N1C(=O)c2ccccc2C1=O` reads 220 to 222 °C; that for `O=C(Nc1ccccc1)C1=Cc2ccccc2S1(=O)=O`, more than 220 °C.
The molecule `COc1ccc(N2CCN(c3ccc(NC(=O)Oc4ccccc4)nc3)CC2)cc1` yielded a melting point of 130 to 132 °C.
The result for `C#CCN1Cc2cccnc2N(c2cccc(Br)c2)C1=O` reads 118 to 119 °C.
In turn, `CCCc1ccccc1OCCCOc1ccc2c(c1CCC)OC(CCC(=O)O)(CCC(=O)O)CC2=O` registered a melting point of 163 to 165 °C.
The result for `CC1=C(C(=O)N(C)Cc2ccc(Cl)cc2)SC2=NC(C)(C)CN21` reads 139 °C; that for `COC(C)(C)C#Cc1ncn2c1CN(C)C(=O)c1cc(F)ccc1-2`, 149 to 150 °C.
The result for `CN(c1ccc(Cl)cc1[N+](=O)[O-])S(=O)(=O)C=Cc1ccccc1` reads 162 to 164 °C.
The result for `CCOC(=O)CCCOc1ccc(C=Cc2ccncc2)cc1` reads 83 to 85 °C.
`c1cn(CCC23CC4CC(CC(C4)C2)C3)cn1` gave a melting point of 64 to 65 °C.
`CC(C)OC(=O)c1cc(-n2c(=O)[nH]cc(C#N)c2=O)c(F)cc1Cl` yielded a melting point of 143 to 145 °C.
Take `COc1ccc(-c2cncc(OC3SCC(O)C(O)C3O)c2)cn1` (stereo unspecified): the melting point came out at 189 °C.
The molecule `CSc1nc(N)n(C(=O)c2ccc(Cl)cc2)n1` had a melting point of 175 to 177 °C.
`CN1Cc2c(-c3noc(CCl)n3)ncn2-c2ccsc2C1=O` had a melting point of 221 to 223 °C.
The result for `CC12CCCc3cc(Nc4ccc(C(=O)O)cc4)cc(c31)CCC2` reads 232 to 234 °C.
The result for `CC(C)N=C1C(c2ccccc2)=C(c2ccccc2)C(c2ccccc2)=C1c1ccccc1` reads 223 °C.
For the molecule `COc1ccc(-c2nc(N)n3nc(-c4ccco4)nc3n2)cc1OC`, the melting point fell in the range of 205 to 208 °C.
The result for `O=C(O)c1ccc(-c2nn(-c3ccc(C(=O)O)cc3)c3ccc([N+](=O)[O-])cc23)cc1` reads 348 to 350 °C; that for `CCS(=O)(=O)c1nc2c(cc1F)c(=O)c(C(=O)O)cn2C1CC1`, 240 to 242 °C; that for `Fc1ccccc1-c1noc2c(Cl)c(OCc3nnn[nH]3)ccc12`, 198 to 200 °C.
`Cn1cnc2nc(-c3cc(Cl)c(Cl)cc3C(=O)O)nn2c1=S`: the melting point lay in the range of 298 to 300 °C.
The result for `CN(C)C=C1C(=O)N(C)C(=O)N1c1cccc(C(F)(F)F)c1` reads 103 to 104 °C.
The result for `CCc1cccc(C)c1CNc1nc(C(=O)N(C)C)cc2[nH]c(C)nc12` reads 207 to 208 °C.
Regarding `O=C(O)c1cc(-c2ccc3c(c2)CCO3)nn(CCCc2ccccc2Cl)c1=O`, the melting point fell in the range of 137 to 140 °C.
Molecule `CC(C)(C)C(=O)CN1C(=O)C(NC(=O)Nc2cccc3ccccc23)CN(C2CCCCC2)c2ccccc21` (stereo unspecified) yielded a melting point of 200 to 203 °C.
`CC1(C2CCCC2)Cc2cc(OCC(=O)NC(=N)N)c(Cl)c(Cl)c2C1=O` (stereo unspecified) yielded a melting point of 216 °C.
On to `O=C(O)CC/C=C/c1nn(-c2ccccc2)c2c1CCC2`, for which the melting point was in the range of 122 to 125 °C.
The result for `COCC(COC)Oc1cc(Oc2ccc(S(C)(=O)=O)nc2)cc2cc(C3=NCC(CCO)S3)[nH]c12` (stereo unspecified) reads 69 to 71 °C; that for `Nc1nc(N)c2ncn([C@H]3C=C[C@@H](O)C3)c2n1` (racemic), 167 to 170 °C.
The molecule `CC(=N)NC/C(F)=C\CC[C@H](N)C(=O)O` had a melting point of 51.5 to 56.3 °C.
In turn, `CN1NC(Oc2cc(F)ccc2[N+](=O)[O-])=CC1C(F)(F)F` (stereo unspecified) showed a melting point of 68 to 70 °C.
The result for `Cc1c(C)c2c(c(C)c1NC(=O)CC(C)C)C(O)(c1ccc3ccccc3c1)C(C)(C)O2` (stereo unspecified) reads 108 to 110 °C; that for `Cc1cccc(C(=O)Nc2cccc(C(F)(F)F)c2)c1NCc1ccncc1`, 94 to 98 °C.
For the molecule `CCc1c(CC(N)=O)c2cc(OCCCC(N)=O)ccc2n1Cc1ccccc1`, the melting point lay within 176 to 179 °C.
The result for `COc1ccc(C(=O)Nc2cc(NC(=O)c3cccc(N(C)C)c3)ccc2F)cc1OC` reads 187 to 188 °C; that for `CC(O)COc1cccc([N+](=O)[O-])c1C#N` (stereo unspecified), 121 to 124 °C.
